# Read-outs that look alike come from different tables or passages of the source.
# Test system: GM3
# Assay: GM3 Elisa assay
# Format: cell-based
# Conditions: Table 1, B16-FO cells, 2 days incubation, read-out: IC50_uM_Mean
# Description: B16-FO cells from ATCC (American Tissue Culture Collection) were grown in DMEM media (ATCC) with 10% Fetal Bovine Serum (Hyclone) and Pen/Step/Glutamine (Biowhittaker). 4000 cells per well were plated on collagen coated plates (BD) and allowed to attach for 6 hours in an incubator (37 degrees, 5% CO2). After 6 hours the compounds and controls were added to the wells, the plates mixed and returned to the incubator for 2 days. Day of assay the cells were fixed for 20 minutes with 1% formaldehyde and then washed with Tris Buffered Saline (TBS) 3 times, 150 μl of TBS was left in the wells and 50 μl of goat serum (Invitrogen) was added, the plates mixed and incubated for 1 hour at room temperature. The plates were flicked and the cells incubated with the monoclonal Antibody to GM3 (NeuAc) (Cosmo) for 45 minutes as room temperature. The plates were then washed 3 times with TBS, leaving 150 μl of TBS in the wells and Peroxidase AffinPure F (ab′) 2 frag Gt Anti-mouse IgM, μ Chain Specific (Jackson Immuno Research) was added in 50 μl, the plates mixed and incubated for 45 minutes at room temperature. The plates were washed 3 times with TBS, flicked and blotted and 100 μl of Quantablu (Pierce) was added to the wells and incubated for 1 hour then read on a Fluorometer at Ex 325 and Em 420. The data was then analyzed using standard programs.
SMILES,IC50 (48 h),IC50
"O=C(CCCC(=O)c1ccccc1)N[C@H](CN1CCCC1)[C@H](O)c1ccc2c(c1)OCCO2 [Compound 113, N-((1R,2R)-1-(2,3-dihydrobenzo[β][1,4]dioxin-6-yl)-1-hydroxy-3-(pyrrolidin-1-yl)propan-2-yl)-5-oxo-5-phenylpentanamide]",100 to 1000 nM,–
"CCOc1ccc(C(=O)CCC(=O)N[C@H](CN2CCCC2)[C@H](O)c2ccc3c(c2)OCCO3)cc1 [Compound 127, N-((1R,2R)-1-(2,3-dihydrobenzo[b][1,4]dioxin-6-yl)-1-hydroxy-3-(pyrrolidin-1-yl)propan-2-yl)-4-(4-ethoxyphenyl)-4-oxobutanamide]",100 to 1000 nM,–
"Cc1nc(-c2ccc(NC(=O)N[C@H](CN3CCCC3)[C@H](O)c3ccc4c(c3)OCCO4)cc2)cs1 [Compound 133, 1-((1R,2R)-1-(2,3-dihydrobenzo[β][1,4]dioxin-6-yl)-1-hydroxy-3-(pyrrolidin-1-yl)propan-2-yl)-3-(4-(2-methylthiazol-4-yl)phenyl)urea]",3000 to 10000 nM,–
"COc1c(C)cc(C(=O)CCCCC(=O)N[C@H](CN2CCCC2)[C@H](O)c2ccc3c(c2)OCCO3)cc1C [Compound 140, N-((1R,2R)-1-(2,3-dihydrobenzo[β][1,4]dioxin-6-yl)-1-hydroxy-3-(pyrrolidin-1-yl)propan-2-yl)-6-(4-methoxy-3,5-dimethylphenyl)-6-oxohexanamide]",≤ 100 nM,–
"COc1ccc(C(=O)CCCCC(=O)N[C@H](CN2CCCC2)[C@H](O)c2ccc3c(c2)OCCO3)cc1 [Compound 141, N-((1R,2R)-1-(2,3-dihydrobenzo[β][1,4]dioxin-6-yl)-1-hydroxy-3-(pyrrolidin-1-yl)propan-2-yl)-6-(4-methoxyphenyl)-6-oxohexanamide]",≤ 100 nM,–
"COc1ccc(C(=O)CCCCCCC(=O)N[C@H](CN2CCCC2)[C@H](O)c2ccc3c(c2)OCCO3)cc1 [Compound 144, N-((1R,2R)-1-(2,3-dihydrobenzo[β][1,4]dioxin-6-yl)-1-hydroxy-3-(pyrrolidin-1-yl)propan-2-yl)-8-(4-methoxyphenyl)-8-oxooctanamide]",≤ 100 nM,–
"COc1ccc(C(=O)CCC(=O)N[C@H](CN2CCCC2)[C@H](O)c2ccc3c(c2)OCCO3)cc1 [Compound 154, N-((1R,2R)-1-(2,3-dihydrobenzo[b][1,4]dioxin-6-yl)-1-hydroxy-3-(pyrrolidin-1-yl)propan-2-yl)-4-(4-methoxyphenyl)-4-oxobutanamide]",100 to 1000 nM,–
"CC(C)(C)c1ccc(C(=O)CCCCC(=O)N[C@H](CN2CCCC2)[C@H](O)c2ccc3c(c2)OCCO3)cc1 [Compound 155, 6-(4-tert-butylphenyl)-N-((1R,2R)-1-(2,3-dihydrobenzo[β][1,4]dioxin-6-yl)-1-hydroxy-3-(pyrrolidin-1-yl)propan-2-yl)-6-oxohexanamide]",100 to 1000 nM,–
"COc1ccc(C(=O)CCCCCC(=O)N[C@H](CN2CCCC2)[C@H](O)c2ccc3c(c2)OCCO3)cc1 [Compound 156, N-((1R,2R)-1-(2,3-dihydrobenzo[β][1,4]dioxin-6-yl)-1-hydroxy-3-(pyrrolidin-1-yl)propan-2-yl)-7-(4-methoxyphenyl)-7-oxoheptanamide]",≤ 100 nM,–
"O=C(CCCCCC(=O)c1ccc(Cl)cc1)N[C@H](CN1CCCC1)[C@H](O)c1ccc2c(c1)OCCO2 [Compound 159, 7-(4-chlorophenyl)-N-((1R,2R)-1-(2,3-dihydrobenzo[β][1,4]dioxin-6-yl)-1-hydroxy-3-(pyrrolidin-1-yl)propan-2-yl)-7-oxoheptanamide]",≤ 100 nM,–

# Next, values leading:
IC50 (48 h),IC50,SMILES
100 to 1000 nM,–,"CC(C)(C)c1ccc(C(=O)CCCCCC(=O)N[C@H](CN2CCCC2)[C@@H](O)c2ccc3c(c2)OCCO3)cc1 [Compound 160, 7-(4-tert-butylphenyl)-N-((1R,2R)-1-(2,3-dihydrobenzo[β][1,4]dioxin-6-yl)-1-hydroxy-3-(pyrrolidin-1-yl)propan-2-yl)-7-oxoheptanamide]"
≤ 100 nM,–,"CC(C)Oc1ccc(C(=O)CCC(=O)N[C@H](CN2CCCC2)[C@@H](O)c2ccc3c(c2)OCCO3)cc1 [Compound 162, N-((1R,2R)-1-(2,3-dihydrobenzo[β][1,4]dioxin-6-yl)-1-hydroxy-3-(pyrrolidin-1-yl)propan-2-yl)-4-(4-isopropoxyphenyl)-4-oxobutanamide]"
–,≤ 100 nM,"O=C(CCC(=O)c1ccc(C(F)(F)F)cc1)N[C@H](CN1CCCC1)[C@H](O)c1ccc2c(c1)OCCO2 [Compound 176, N-((1R,2R)-1-(2,3-dihydrobenzo[β][1,4]dioxin-6-yl)-1-hydroxy-3-(pyrrolidin-1-yl)propan-2-yl)-4-oxo-4-(4-(trifluoromethyl)phenyl)butanamide (2S,3S)-2,3-dihydroxysuccinate]"
≤ 100 nM,–,"CC(C)Oc1ccc(C(=O)CCCCC(=O)N[C@H](CN2CCCC2)[C@H](O)c2ccc3c(c2)OCCO3)cc1 [Compound 181, N-((1R,2R)-1-(2,3-dihydrobenzo[b][1,4]dioxin-6-yl)-1-hydroxy-3-(pyrrolidin-1-yl)propan-2-yl)-6-(4-isopropoxyphenyl)-6-oxohexanamide]"
100 to 1000 nM,–,"CC(C)CC(=O)c1ccc(OCCC(=O)N[C@H](CN2CCCC2)[C@H](O)c2ccc3c(c2)OCCO3)cc1 [Compound 187, N-((1R,2R)-1-(2,3-dihydrobenzo[β][1,4]dioxin-6-yl)-1-hydroxy-3-(pyrrolidin-1-yl)propan-2-yl)-3-(4-(3-methylbutanoyl)phenoxy)propanamide (2S,3S)-2,3-dihydroxysuccinate]"
100 to 1000 nM,–,"CCc1ccc(OCCC(=O)N[C@H](CN2CCCC2)[C@H](O)c2ccc3c(c2)OCCO3)cc1 [Compound 188, N-((1R,2R)-1-(2,3-dihydrobenzo[b][1,4]dioxin-6-yl)-1-hydroxy-3-(pyrrolidin-1-yl)propan-2-yl)-3-(4-ethylphenoxy)propanamide (2R,3R)-2,3-dihydroxysuccinate]"
100 to 1000 nM,–,"CCC(=O)c1ccc(OCCC(=O)N[C@H](CN2CCCC2)[C@H](O)c2ccc3c(c2)OCCO3)cc1 [Compound 189, N-((1R,2R)-1-(2,3-dihydrobenzo[b][1,4]dioxin-6-yl)-1-hydroxy-3-(pyrrolidin-1-yl)propan-2-yl)-3-(4-propionylphenoxy)propanamide (2R,3R)-2,3-dihydroxysuccinate]"
≤ 100 nM,–,"COc1ccc(C(=O)CCCC(=O)N[C@H](CN2CCCC2)[C@H](O)c2ccc3c(c2)OCCO3)cc1 [Compound 191, N-((1R,2R)-1-(2,3-dihydrobenzo[β][1,4]dioxin-6-yl)-1-hydroxy-3-(pyrrolidin-1-yl)propan-2-yl)-5-(4-methoxyphenyl)-5-oxopentanamide (2R,3R)-2,3-dihydroxysuccinate]"
100 to 1000 nM,–,"CC(=O)CCc1ccc(OCCC(=O)N[C@H](CN2CCCC2)[C@H](O)c2ccc3c(c2)OCCO3)cc1 [Compound 193, N-((1R,2R)-1-(2,3-dihydrobenzo[b][1,4]dioxin-6-yl)-1-hydroxy-3-(pyrrolidin-1-yl)propan-2-yl)-3-(4-(3-oxobutyl)phenoxy)propanamide (2R,3R)-2,3-dihydroxysuccinate]"
≤ 100 nM,–,"COc1ccc(OCCCC(=O)N[C@H](CN2CCCC2)[C@H](O)c2ccc3c(c2)OCCO3)cc1 [Compound 197, N-((1R,2R)-1-(2,3-dihydrobenzo[β][1,4]dioxin-6-yl)-1-hydroxy-3-(pyrrolidin-1-yl)propan-2-yl)-4-(4-methoxyphenoxy)butanamide (2S,3S)-2,3-dihydroxysuccinate]"

# — US8304447B2, “2-acylaminopropoanol-type glucosylceramide synthase inhibitors” (Genzyme Corporation, priority 2007, dated 2012)
